# According to patent US12344644B2, “Amelioration and treatment of infarction damage with a polypeptide segement of BNIP3” (priority 2021, dated 2025):
# Key:
# [1] = system: wild-type mice subjected to myocardial I/R; test: In vivo murine myocardial I/R: infarct size per area at risk (Evans blue/TTC); parameters: species or system mouse; settings: 30 min ischemia, 24 hours reperfusion
# recombinant BNIP3 = molecular target: T1, recombinant BNIP3 (Mus musculus, UniProt O55003); test: BNIP3/peptide microarray (truncation, alanine scan, substitution analysis); type: binding; settings: alanine scan and substitution analyses of BNIP3 1-20
# T1 construct: purchased Cusabio (obtained via Hölzel Diagnostika, Cologne, Germany) CSB-CF002766Mo-50
# T1 sequence (O55003 whole entry, the tested form may be a part): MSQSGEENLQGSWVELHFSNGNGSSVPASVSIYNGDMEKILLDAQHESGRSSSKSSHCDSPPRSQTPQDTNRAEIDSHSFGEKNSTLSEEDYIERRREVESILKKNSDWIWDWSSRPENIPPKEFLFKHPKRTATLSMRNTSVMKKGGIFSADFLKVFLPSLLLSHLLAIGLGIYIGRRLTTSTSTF
# [2] = system: human cardiomyocytes (HCM); test: DOX induced mitochondrial membrane potential destabilization in human cardiomyocytes; settings: 10 μM DOX alone or with peptide co-administered; four and 22 hours
# wild-type mice [3] = test: DOX treatment in vivo: cardiac injury markers (cTnI, CK, LDH, BNP); parameters: species or system mouse; settings: DOX alone or with coadministration of PepB
# [4] = system: human cardiomyocytes (HCM); test: DOX induced mitochondrial ROS generation in human cardiomyocytes; settings: 10 μM DOX alone or with peptide co-administered; four and 22 hours
# [5] = system: human cardiomyocytes (HCM); test: DOX induced mPTP opening in human cardiomyocytes (Calcein-AM); settings: 10 μM DOX alone or with peptide co-administered
# mitochondria = test: DOX treatment in vivo: mitochondrial OCR (Seahorse mitochondrial stress test)
# [6] = system: human cardiomyocytes (HCM); test: DOX induced mitochondrial calcium ion overload in human cardiomyocytes; settings: 10 μM DOX alone or with peptide co-administered; four hours
# autophagic flux = test: DOX treatment in vivo: autophagic flux (LC3, p62, BNIP3 western blot, chloroquine); settings: DOX alone or with PepB
# wild-type mice [7] = test: DOX treatment in vivo: serial echocardiography; settings: DOX alone or in combination with PepB
# Description: Next, we explored the effect of DOX treatment on cardiac function assessed with echocardiographic measurements at three time points (TO, T1 16 days, T2 42 days) (FIG. 19).
# caspase-3 = test: Caspase-3 activity in the AAR after I/R; type: in vivo, mouse; settings: 1 hour reperfusion
# BNIP3 = test: Mitochondrial BNIP3 level in the AAR after I/R (immunoblot); type: in vivo, mouse; settings: 10 minutes reperfusion
molecule,measurement,setting,value
"GRKKRRQRRRPQLDAQHESGRSSSKSSHCDSP [TATBNIP3-20C, control peptide: HIV-1 PTD and 20 amino acids derived from BNIP3 42-61]",infarct size compared with vehicle treatment,[1]; injected 5 minutes before reperfusion,no difference
VELHFSN,BNIP3 binding (microarray signal),recombinant BNIP3,substantially higher luminescence
"COc1cccc2c1C(=O)c1c(O)c3c(c(O)c1C2=O)C[C@@](O)(C(=O)CO)C[C@@H]3O[C@H]1C[C@H](N)[C@H](O)[C@H](C)O1 [DOX, doxorubicin]",mitochondrial membrane potential,[2],disrupted
same,"cardiomyocyte death, cardiac troponin I (cTnl) levels",wild-type mice [3],high cardiac troponin I (cTnl) levels
same,mitochondrial ROS generation,[4],triggered
same,mPTP opening,[5],activated
same,basal respiration,mitochondria; DOX alone or with PepB,affected
same,maximal respiration,mitochondria; DOX alone or with PepB,affected
same,respiratory reserve capacity (OCR),mitochondria; DOX alone or with PepB,inhibited
same,Complex II-stimulated respiration,mitochondria; DOX alone or with PepB co-treatment,inhibition
same,mitochondrial calcium ion overload,[6],induced
same,BNIP3 accumulation,autophagic flux,triggered p62 and BNIP3 accumulation
same,p62 accumulation,autophagic flux,triggered p62 and BNIP3 accumulation
same,heart rate,wild-type mice [7],unaffected
"GRKKRRQRRRPQMSQSGEENLQGSWVELHFSN [TAT-BNIP3-20A, HIV-1 PTD and 20 amino acids derived from BNIP3 1-20]",caspase-3 activity,caspase-3,markedly reduced caspase-3 activity
same,reduction in infarct size relative to treatment with vehicle,[1]; peptide injected 5 minutes before reperfusion,41%
same,BNIP3 translocation to the mitochondria,BNIP3,prevented BNIP3 translocation
